Measurements taken from ChEMBL document CHEMBL3045086, “Two-dimensional quantitative structureactivity relationship study on polyphenols as inhibitors of -glucosidase” (Med Chem Res, 2012).

The molecules below were run against Alpha-glucosidase MAL62 (Saccharomyces cerevisiae) (UniProt P07265) (assay: Inhibition of baker's yeast alpha-glucosidase using p-nitrophenyl-alpha-D-glucopyranoside as substrate by spectrophotometry).
Sequence of Alpha-glucosidase MAL62 (Saccharomyces cerevisiae) (P07265 whole entry): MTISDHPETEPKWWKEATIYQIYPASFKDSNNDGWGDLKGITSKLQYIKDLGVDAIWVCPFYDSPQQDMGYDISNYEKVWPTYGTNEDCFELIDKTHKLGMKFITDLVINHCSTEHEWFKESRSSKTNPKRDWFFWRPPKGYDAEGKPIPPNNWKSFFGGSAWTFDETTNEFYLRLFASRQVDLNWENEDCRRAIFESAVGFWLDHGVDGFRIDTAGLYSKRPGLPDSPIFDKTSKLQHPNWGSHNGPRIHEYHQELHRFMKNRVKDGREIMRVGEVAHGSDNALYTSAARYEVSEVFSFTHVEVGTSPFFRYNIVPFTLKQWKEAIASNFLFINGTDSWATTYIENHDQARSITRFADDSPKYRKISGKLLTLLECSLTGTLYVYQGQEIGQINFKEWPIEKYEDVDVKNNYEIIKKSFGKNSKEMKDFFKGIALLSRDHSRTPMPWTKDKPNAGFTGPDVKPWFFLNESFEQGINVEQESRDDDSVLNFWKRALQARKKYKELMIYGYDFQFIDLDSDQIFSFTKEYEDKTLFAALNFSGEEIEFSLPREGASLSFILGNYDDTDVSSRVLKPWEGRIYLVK

| SMILES | logIC50 |
| --- | --- |
| C=CC(C)(C)c1c(O)cc(O)c2c(=O)c3oc4c(CC=C(C)C)c(O)c(OCC=C(C)C)cc4c3oc12 | 1.52 |
| C=C(C)C(CC=C(C)C)Cc1c(O)cc(O)c2c1OC(c1ccccc1O)CC2=O (centres undefined) | 1.65 |
| O=C(O)/C=C/c1cccc(O)c1 | 3.1 |
| O=C(OC1Cc2c(O)cc(O)cc2OC1c1cc(O)c(O)c(O)c1)c1cc(O)c(O)c(O)c1 (centres undefined) | 0.301 |
| C=C(C)C(CCC(C)(C)O)Cc1c(O)cc(OC)c2c1OC(c1ccc(O)cc1O)CC2=O (centres undefined) | 2.25 |
| Oc1cc(O)c2c(c1)OC(c1ccc(O)c(O)c1)C(O)C2 (centres undefined) | 2.11 |
| O=C(O)/C=C/c1ccc(Oc2ccccc2)cc1 | 2.64 |
| C=C(C)C(CC=C(C)C)Cc1c(O)cc(OC)c2c1OC(c1ccc(O)cc1O)CC2=O (centres undefined) | 1.83 |
| CC(C)=CCc1cc(C(=O)/C=C/c2ccc(O)cc2)c(O)cc1O | 1.04 |
| O=c1c(O)c(-c2cc(O)c(O)c(O)c2)oc2cc(O)cc(O)c12 | 0.699 |
| O=C(O)/C=C/c1ccc(F)cc1 | 2.43 |
| CC1(C)C=Cc2cc(C(=O)/C=C/c3ccc(O)c(O)c3)c(O)cc2O1 | 1.28 |
| O=C(O)/C=C/c1ccc(O)cc1 | 2.3 |
| O=C(O)/C=C/c1ccc(Cl)cc1 | 2.59 |
| C=CC(C)(C)c1c(O)cc(O)c2c(=O)c(O)c(-c3cc(O)c(O)c(CC=C(C)C)c3)oc12 | 0.556 |
| O=c1cc(-c2ccc(O)c(O)c2)oc2cc(O)cc(O)c12 | 1.32 |
| O=c1c(O)c(-c2ccc(O)cc2)oc2cc(O)cc(O)c12 | 1.08 |
| CC(C)=CCc1cc(-c2oc3cc(O)c(CC=C(C)C)c(O)c3c(=O)c2O)cc(O)c1O | 0.322 |
| O=c1c(-c2ccc(O)cc2)coc2cc(O)ccc12 | 1.15 |
| O=c1c(O)c(-c2ccc(O)c(O)c2)oc2cc(O)cc(O)c12 | 0.845 |
| COc1cccc(/C=C/C(=O)O)c1 | 2.76 |
| COc1ccc([C@@H]2CC(=O)c3c(O)cc(O)cc3O2)cc1O | 2.18 |

| SMILES | logIC50 |
| --- | --- |
| C=CC(C)(C)c1cc2c(cc1O)OC(c1cc(O)c(O)c(CC=C(C)C)c1C/C=C\C)CC2 (centres undefined) | 1.02 |
| C=C(C)C(CC=C(C)C)Cc1c(O)cc(OC)c2c1OC(c1ccc(OC)cc1O)CC2=O (centres undefined) | 2.19 |
| CC1(C)C=Cc2cc(C(=O)/C=C/c3ccc(O)cc3)c(O)cc2O1 | 1.09 |
| O=c1c(O)c(-c2ccc(O)c(O)c2)oc2cc(O)ccc12 | 1.11 |
| CC(C)=CCc1c(C2CCc3ccc(O)cc3O2)cc2c(c1O)OC(C)(C)C=C2 (centres undefined) | 1.42 |
| Oc1cc(O)c2cc(O)c(-c3ccc(O)c(O)c3)[o+]c2c1 | 0.602 |
| O=C1C[C@@H](c2ccc(O)cc2)Oc2cc(O)cc(O)c21 | 1.88 |
| COC(=O)c1cc(O)c(O)c(O)c1 | 1.06 |
| Oc1cc(O)c2c(c1)OC(c1cc(O)c(O)c(O)c1)C(O)C2 (centres undefined) | 1.88 |
| CCOC(=O)/C=C/c1ccc(OC)cc1 | 1.7 |
| COc1ccc(/C=C/C(=O)O)cc1 | 1.6 |
| C=CC(C)(C)c1c(O)cc(O)c2c(=O)c3oc4c5c(c(OCC=C(C)C)cc4c3oc12)OC(C)(C)C=C5 | 1.44 |
| O=C(O)c1cc(O)c(O)c(O)c1 | 0.716 |
| O=c1c(O)c(-c2ccc(O)cc2O)oc2cc(O)cc(O)c12 | 1.6 |
| C=C(C)C(CC=C(C)C)Cc1c(O)cc(O)c2c1OC(c1ccc(O)cc1O)CC2=O (centres undefined) | 1.57 |
| OC[C@H]1OC(OC2=C(c3cc(O)c(O)c(O)c3)Oc3cc(O)cc(O)c3C2)[C@@H](O)[C@@H](O)[C@@H]1O (some centres undefined) | 1.48 |
| CC(C)=CCc1cc(C2CCc3ccc(O)cc3O2)cc(O)c1O (centres undefined) | 1.88 |
| O=c1c(-c2ccc(O)cc2)coc2cc(O)cc(O)c12 | 0.845 |
| CC(C)=CCc1cc(C2CCc3ccc(O)cc3O2)c(CC=C(C)C)c(O)c1O (centres undefined) | 1.08 |
| CC(C)=CCc1cc(C(=O)/C=C/c2ccc(O)c(O)c2)c(O)cc1O | 0.724 |
| COc1cc(O)c(C(C)=C(C)C)c2c1C(=O)CC(c1ccc(O)cc1)O2 (centres undefined) | 2.55 |
| OC[C@H]1OC(OC2=C(c3ccc(O)c(O)c3)Oc3cc(O)cc(O)c3C2)[C@@H](O)[C@@H](O)[C@@H]1O (some centres undefined) | 1.3 |
